In patent US20130211059A1, “COMPOSITION SUPPRESSING MATRIX-METALLOPROTEINASE ACTIVITY” (University of Miyazaki, priority 2010, published 2013):

Experiments:
[1] = test system: SIRT1 gene; assay: SIRT1 gene expression in cultured macrophages; type: cell-based; settings: U937 cells pretreated with 2 mg/mL, then PMA; 24 hours after stimulation; FIG. 6 C
Experimental: In this example, the effect of 2-DG was evaluated on the expression of SIRT1 gene in cultured macrophages. […] Gene expression was evaluated at the mRNA level in a manner similar to that used in Example 4.
In the meantime, 2-DG (2 mg/mL) was pretreated to the U937 cell culture solution, and stimulated them with PMA. As control cells, monocytic cells (U937) to which neither phorbol ester nor 2-DG had been administered and monocytic cells (U937) to which only phorbol ester had been administered were used. At 24 hours after stimulation, SIRT1 gene expression levels were compared, and the results are shown in panel C of FIG. 6.

[2] = test system: MMP-9; assay: MMP-9 activity in ex vivo culture of human AAA wall, zymogram; type: cell-based; settings: FIG. 2 D
Experimental: (§1) The human AAA wall was homogenized, the obtained samples were evaluated for GLUT-3 protein expression by Western blot, and MMP-9 activity was determined by zymography. Western blot analysis was conducted by subjecting 10 μg of the extracted protein (quantified) to SDS-polyacrylamide gel electrophoresis for separation, subsequently transferring and immobilizing the resultant onto a membrane to prepare a blot, carrying out a reaction of the blot with an anti-GLUT-3 antibody for 1 hour and then with a secondary antibody, and then detecting signals. Meanwhile, zymogram analysis was conducted by subjecting 5 μg of the extracted protein (quantified) to electrophoresis on a zymogram gel plate to separate the protein. The method employed thereafter was carried out according to the instructions of a kit (Invitrogen). After 24 hours of a reaction at 37° C., zymogram gel was stained overnight with a Coomassie blue solution and then destained, and then enzyme activity was detected.
(§2) In this example, 2-DG, cytochalasin, or phloretin was administered to evaluate the suppression of MMP-9 activity in cultured macrophages or the human AAA wall, using a zymogram used in Example 1.
In the meantime, U937 cells were pretreated with a glucose transporter inhibitor (cytochalasin or phloretin), and then stimulated with 10 nmol/L PMA. […]

[3] = test system: MMP-9; assay: PMA-induced MMP-9 activity in cultured macrophages (U937), gelatin zymogram; type: cell-based; settings: U937 cells pretreated with substance, then stimulated with 10 nmol/L PMA, FIG. 2 A-C
Experimental: as §1, §2
In the meantime, U937 cells were pretreated with a glucose transporter inhibitor (cytochalasin or phloretin), and then stimulated with 10 nmol/L PMA. In addition, U937 cells were pretreated with 2-DG and then stimulated with 10 nmol/L PMA. Furthermore, 2-DG was administered to the ex vivo culture of human AAA wall.
In panels A to D, “MMP-9 (L)” denotes latent MMP-9 activity and “MMP-9 (A)” denotes active MMP-9 activity. In addition, in panel D, “MMP-2 (L)” denotes latent MMP-2 activity and “MMP-2 (A)” denotes active MMP-2 activity. Moreover, in panel D, “control” denotes an aqueous solvent not containing 2-DG.

[4] = test system: abdominal aorta aneurysm formation; assay: Calcium chloride application-induced mouse aneurysm model; type: in vivo
Experimental: The mouse aneurysm model was induced by peri-aortic application of calcium chloride to 8-week-old male C57BL/6J mice.
2-DG was intraperitoneally administered at 100 mg/kg body weight or 1 g/kg body weight/day to the mouse aneurysm model for 28 days. After 28 days, the abdominal aorta was removed and then the diameter thereof was measured. An abdominal aorta was removed similarly from mice to which saline had been administered instead of 2-DG after application of calcium chloride as a negative control, and a mouse that had been treated in the same manner except for application of sodium chloride instead of calcium chloride as a control, and then the diameter of each thereof was measured.
Panel B is a graph showing the diameter (mm) of the abdominal aorta removed from each group.

[5] = test system: MMP-1, CCL-2, TNF-α, MMP-9, CCL-8 and IL-6 gene expression; assay: Expression of atherosclerosis/aneurysm-related genes in cultured macrophages by DNA microarray; type: cell-based; settings: U937 cells pretreated, then 10 nmol/L PMA, 24 hours after stimulation, FIG. 5
Experimental: In this example, the effects of 2-DG on gene expressions associated with development of atherosclerosis and/or aneurysm in cultured macrophages were evaluated by DNA microarray (Agilent). The evaluated genes associated with atherosclerosis induction- and/or aneurysm formation were MMP-1 and MMP-9, chemokines (CCL-2 and CCL-8) and inflammatory cytokines (TNF-α and IL-6) (Libby P., Inflammation in atherosclerosis, Nature 2002, 420 (6917): 868-874 and Tung W S, Lee J K, Thompson R W., Simultaneous analysis of 1176 gene products in normal human aorta and abdominal aortic aneurysms using a membrane-based complementary DNA expression array. J Vasc Surg. 2001, 34(1): 143-150). Monocytic cells (U937) were stimulated with 10 nmol/L phorbol ester (PMA) for differentiation to macrophages. Some U937 cells were pretreated with 2-DG and then stimulated with 10 nmol/L PMA. As control cells, monocytic cells (U937) to which neither phorbol ester nor 2-DG had been administered were used. At 24 hours after stimulation, cells were collected, RNA was extracted, cDNA was constructed from RNA, and then the resultant was arrayed. The results of arraying were analyzed by GeneSpring GX10 software, so that the expression levels of the atherosclerosis induction- and/or aneurysm-related genes of each cell sample were evaluated. […]

[6] = test system: abdominal aorta aneurysm formation; assay: Angiotensin II-induced apolipoprotein E knockout mouse aneurysm model; type: in vivo; settings: angiotensin II-induced apolipoprotein E knockout mice; 1 g/kg body weight/day intraperitoneally for 28 days; FIG. 4
Experimental: Each angiotensin II-induced apolipoprotein E knockout mouse was produced by subcutaneous administration of a pressor peptide, angiotensin II (1000 ng/kg/min), to a 12-week-old apolipoprotein E-deficient mouse via osmotic pump for 28 days. After osmotic pump implantation, 2-DG was intraperitoneally administered at 1 g/kg body weight/day for 28 days (the number of mice (n)=14). After 28 days of administration, the abdominal aorta was removed and then the aortic diameter was measured. As negative control, the abdominal aorta was similarly removed from mice (the number of mice (n)=14) produced by administration of saline instead of 2-DG, and then the aortic diameter was measured.

Row | Molecule | SIRT1 gene expression level [1] | MMP-9 activity in ex vivo culture of the human AAA wall [2] | PMA-induced MMP-9 activity [3] | expansion of aortic diameter following application of calcium chloride ([4]; C57BL/6J mice, 100 mg/kg or 1 g/kg body weight/day intraperitoneally for 28 days, FIG. 3) | vascular wall structure (tunica media layers, cytoprotective effect) ([4]; calcium chloride mouse aneurysm model, mice treated with 2-DG) | expression levels of atherosclerosis induction- and/or aneurysm-related genes (MMP-1, CCL-2, TNF-α, MMP-9, CCL-8, IL-6), mRNA [5] | aneurysm formation (aortic diameter) [6]
1 | O=CC[C@@H](O)[C@H](O)[C@H](O)CO [2-DG, 2-deoxyglucose] | significantly increased | suppressed | decreased | suppressed | maintained the vascular wall structure | decreased | suppressed
2 | O=C(CCc1ccc(O)cc1)c1c(O)cc(O)cc1O [phloretin] |  |  | decreased |  |  |  | 
3 | cytochalasin |  |  | decreased |  |  |  | 
